According to patent publication US10253023B2, “Heteroaryl compounds as BTK inhibitors and uses thereof” (Merck Patent GmbH, priority 2014, dated 2019):

Biological target: T1, BTK C481S (Homo sapiens, UniProt Q06187, C481S)
T1 construct: His-TEV-hsBTK(328-659)(C481S) from the Merck Serono Protein Purification Laboratory; His (N); TEV (protease cleavage site) (N)
Assay: Assay B: Microfluidic Off-Chip Mobility Shift Assay against BTK C481S enzyme
Format: biochemical
Conditions: His-TEV-hsBTK(328-659)(C481S), 90 min, 25° C
Description: Assay B: Microfluidic Off-Chip Mobility Shift Assay Protocol for Potency Assessment Against BTK C481S Enzyme The protocol below describes a microfluidic, off-chip mobility shift kinase assay to measure inherent potency of compounds against BTK C481S enzyme. The mechanics of the assay platform are described by the vendor (PerkinElmer, Hopkinton, Mass.) on their website at the following URL: […].com. Briefly, 2.5× stocks of His-TEV-hsBTK(328-659)(C481S) from the Merck Serono Protein Purification Laboratory in Darmstadt, Germany (PCS, […]/234), 1.6×ATP and appropriate […] peptide substrate (FITC-AHA-[…]-NH2; Tufts University Core Facility custom synthesis) were prepared in kinase reaction buffer consisting of 25 mM MgCl2, 0.015% Brij-35 (30%), 100 mM HEPES, pH 7.5, and 10 mM DTT. […] Terminated reactions were monitored at -2 PSI, -3000 V/-700 Volts in a LabChip 3000 plate reader from Caliper Life Sciences, a PerkinElmer Company (Hopkinton, Mass.), and the activity was quantified by laser-induced fluorescence measuring the charge/mass difference between substrate and product resulting from peptide phosphorylation. IC50 and efficacy were determined by plotting log [Inhibitor] vs. % Activity in GeneData Screener (Basel, Switzerland).

T1 sequence (Q06187 328-659 C481S): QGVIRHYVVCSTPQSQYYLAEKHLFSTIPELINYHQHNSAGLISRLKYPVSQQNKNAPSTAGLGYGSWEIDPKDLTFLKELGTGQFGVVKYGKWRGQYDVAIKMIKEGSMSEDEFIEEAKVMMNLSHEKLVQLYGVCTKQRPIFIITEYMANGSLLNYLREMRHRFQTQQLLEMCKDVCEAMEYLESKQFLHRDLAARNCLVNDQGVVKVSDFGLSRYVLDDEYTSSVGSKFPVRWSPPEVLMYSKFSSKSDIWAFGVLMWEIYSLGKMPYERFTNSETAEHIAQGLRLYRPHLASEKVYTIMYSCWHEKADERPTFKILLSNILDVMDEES

- IC50: < 100 nM
SMILES: CC(C)(C)c1noc(C(=O)NCc2ccc(-c3ccnc4[nH]c(-c5cnn(C6COC6)c5)nc34)cc2F)n1 [Example 128]
